Article PMC8617031, “Development of a BCL-xL and BCL-2 dual degrader with improved anti-leukemic activity,” (Nature Communications, 2021)
Where “and” joins values, the source holds several entries; their conditions need not be identical. Identical values can stand only once. Like-named read-outs stand apart in the source and are kept apart here.

Assays:
Kasumi-1 cells = experiment: Viability (MTS) of Kasumi-1 AML cells; assay type: cell-based, human; conditions: Fig. 7c; for Luminescence (raw plate reading): Kasumi, 24h
His-tagged BCL-xL = target: T1, His-tagged BCL-xL (Homo sapiens, UniProt Q07817); experiment: AlphaScreen competitive binary binding, BCL-xL (biotin-BAD peptide)
T1 construct: purchased Sigma-Aldrich SRP0187
T1 sequence (Q07817 whole entry): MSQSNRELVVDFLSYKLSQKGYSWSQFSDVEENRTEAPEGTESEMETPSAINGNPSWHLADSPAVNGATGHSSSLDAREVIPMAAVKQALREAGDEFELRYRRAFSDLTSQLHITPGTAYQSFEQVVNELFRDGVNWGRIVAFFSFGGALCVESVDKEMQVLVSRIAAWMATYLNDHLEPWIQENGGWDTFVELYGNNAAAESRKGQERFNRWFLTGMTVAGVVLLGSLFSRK
Method: The reagents were diluted in a buffer containing 250 mM HEPES pH 7.5, 1 M NaCl, 1% BSA, and 0.05% Tween-80. His-tagged BCL-xL (0.5 nM, Cat. No. SRP0187, Sigma-Aldrich) or BCL-2 (1 nM, Cat. No. SRP0186, Sigma-Aldrich) were incubated with serial diluted 753a or 753b and 2 nM biotin-tagged BAD (biotin-[…] amino-terminal, AnaSpec, for BCL-xL) or 10 nM BIM peptides (biotin-[…] N-terminal, AnaSpec, for BCL-2) to a final volume of 40 µl in a 96-well PCR plate. […] After incubation for 2 h, 5 µl 6× His-acceptor beads (Cat. No. AL128M, PerkinElmer) were added to each well at 20 µg/ml final concentration and incubated for 1 h. Then 5 µl streptavidin-donor beads were added (Cat. No. 6760002, PerkinElmer) to each well at 20 µg/ml final concentration and incubated for 45 min. At the end of the incubation period, 17 µl of each sample was transferred in adjacent wells of 384-well proxy plate (Cat. No. 6008280, PerkinElmer). The plate was scanned using the Alpha program on Biotek’s Synergy Neo2 multimode plate reader. The inhibition constant (Ki) was calculated using the non-linear regression, one site, competitive binding, Fit Ki function on GraphPad Prism 9 software, based on experimentally determined dissociation constant (Kd) for each protein–peptide pair.

- IC50 (His-tagged BCL-xL; BCL-xL Rep-1): 120 nM
- Ki (His-tagged BCL-xL; BCL-xL Rep-1): 5.4 nM
- Alpha signal normalised to Maximum/Minimum (inhibition) (His-tagged BCL-xL; BCL-xL Rep-1, 0.000305176 uM, 0.000305176 µM): 20.1617
- inhibition at 0.000305176 µM (His-tagged BCL-xL; BCL-xL Rep-1, 0.000305176 uM, read-out: Alpha signal normalised to Maximum/Minimum (inhibition)): 18.1%
- Alpha signal normalised to Maximum/Minimum (inhibition) (His-tagged BCL-xL; BCL-xL Rep-1, 0.0012207 uM, 0.0012207 µM): 17.8409
- inhibition at 0.0012207 µM (His-tagged BCL-xL; BCL-xL Rep-1, 0.0012207 uM, read-out: Alpha signal normalised to Maximum/Minimum (inhibition)): 21.3%
- Alpha signal normalised to Maximum/Minimum (inhibition) (His-tagged BCL-xL; BCL-xL Rep-1, 0.00488281 uM, 0.00488281 µM): 23.949
- inhibition at 0.00488281 µM (His-tagged BCL-xL; BCL-xL Rep-1, 0.00488281 uM, read-out: Alpha signal normalised to Maximum/Minimum (inhibition)): 23.9%
- Alpha signal normalised to Maximum/Minimum (inhibition) (His-tagged BCL-xL; BCL-xL Rep-1, 0.0195312 uM, 0.0195312 µM): 38.2381
- inhibition at 0.0195312 µM (His-tagged BCL-xL; BCL-xL Rep-1, 0.0195312 uM, read-out: Alpha signal normalised to Maximum/Minimum (inhibition)): 39%
- Alpha signal normalised to Maximum/Minimum (inhibition) (His-tagged BCL-xL; BCL-xL Rep-1, 0.078125 uM, 0.078125 µM): 43.5761
- inhibition at 0.078125 µM (His-tagged BCL-xL; BCL-xL Rep-1, 0.078125 uM, read-out: Alpha signal normalised to Maximum/Minimum (inhibition)): 42.3%
- Alpha signal normalised to Maximum/Minimum (inhibition) (His-tagged BCL-xL; BCL-xL Rep-1, 0.3125 uM, 0.3125 µM): 88.5079
- inhibition at 0.3125 µM (His-tagged BCL-xL; BCL-xL Rep-1, 0.3125 uM, read-out: Alpha signal normalised to Maximum/Minimum (inhibition)): 85.7%
- Alpha signal normalised to Maximum/Minimum (inhibition) (His-tagged BCL-xL; BCL-xL Rep-1, 1.25 uM, 1.25 µM): 97.7177
- inhibition at 1.25 µM (His-tagged BCL-xL; BCL-xL Rep-1, 1.25 uM, read-out: Alpha signal normalised to Maximum/Minimum (inhibition)): 96.9%
- Alpha signal normalised to Maximum/Minimum (inhibition) (His-tagged BCL-xL; BCL-xL Rep-1, 5 uM, 5 µM): 99.5511
- inhibition at 5 µM (His-tagged BCL-xL; BCL-xL Rep-1, 5 uM, read-out: Alpha signal normalised to Maximum/Minimum (inhibition)): 99.5%
- Alpha signal (raw counts) (His-tagged BCL-xL; BCL-xL Rep-1, plate row B, 5 uM): 27230 and 26015
- Alpha signal (raw counts) (His-tagged BCL-xL; BCL-xL Rep-1, plate row C, 1.25 uM): 64394 and 52279
- Alpha signal (raw counts) (His-tagged BCL-xL; BCL-xL Rep-1, plate row D, 0.3125 uM): 224421 and 184214
- Alpha signal (raw counts) (His-tagged BCL-xL; BCL-xL Rep-1, plate row E, 0.078125 uM): 846185 and 827887
- Alpha signal (raw counts) (His-tagged BCL-xL; BCL-xL Rep-1, plate row F, 0.0195312 uM): 894074 and 904357
- Alpha signal (raw counts) (His-tagged BCL-xL; BCL-xL Rep-1, plate row G, 0.00488281 uM): 1110366 and 1109056
- Alpha signal (raw counts) (His-tagged BCL-xL; BCL-xL Rep-1, plate row H, 0.0012207 uM): 1147150 and 1196559
- Alpha signal (raw counts) (His-tagged BCL-xL; BCL-xL Rep-1, plate row I, 0.000305176 uM): 1192890 and 1163311
- Alpha signal (raw counts) (His-tagged BCL-xL; BCL-xL Rep-1, plate row J, 7.62939e-5 uM): 1153277 and 1055277
- Alpha signal (raw counts) (His-tagged BCL-xL; BCL-xL Rep-1, plate row K, 1.90735e-5 uM): 1140776 and 1328684
- Alpha signal (raw counts) (His-tagged BCL-xL; BCL-xL Rep-2, 7.62939e-5 uM): 1377571 and 1338961
- Alpha signal normalised to Maximum/Minimum (inhibition) (His-tagged BCL-xL; BCL-xL Rep-2, 0.0012207 uM, 0.0012207 µM): 12.2985
- inhibition at 0.0012207 µM (His-tagged BCL-xL; BCL-xL Rep-2, 0.0012207 uM, read-out: Alpha signal normalised to Maximum/Minimum (inhibition)): 16.2%
- Alpha signal normalised to Maximum/Minimum (inhibition) (His-tagged BCL-xL; BCL-xL Rep-2, 0.00488281 uM, 0.00488281 µM): 25.1578
- inhibition at 0.00488281 µM (His-tagged BCL-xL; BCL-xL Rep-2, 0.00488281 uM, read-out: Alpha signal normalised to Maximum/Minimum (inhibition)): 22.8%
- Alpha signal normalised to Maximum/Minimum (inhibition) (His-tagged BCL-xL; BCL-xL Rep-2, 0.0195312 uM, 0.0195312 µM): 25.456
- inhibition at 0.0195312 µM (His-tagged BCL-xL; BCL-xL Rep-2, 0.0195312 uM, read-out: Alpha signal normalised to Maximum/Minimum (inhibition)): 35.3%
- Alpha signal normalised to Maximum/Minimum (inhibition) (His-tagged BCL-xL; BCL-xL Rep-2, 0.078125 uM, 0.078125 µM): 57.5037
- inhibition at 0.078125 µM (His-tagged BCL-xL; BCL-xL Rep-2, 0.078125 uM, read-out: Alpha signal normalised to Maximum/Minimum (inhibition)): 60.5%
- Alpha signal normalised to Maximum/Minimum (inhibition) (His-tagged BCL-xL; BCL-xL Rep-2, 0.3125 uM, 0.3125 µM): 86.3518
- inhibition at 0.3125 µM (His-tagged BCL-xL; BCL-xL Rep-2, 0.3125 uM, read-out: Alpha signal normalised to Maximum/Minimum (inhibition)): 86.5%
- Alpha signal normalised to Maximum/Minimum (inhibition) (His-tagged BCL-xL; BCL-xL Rep-2, 1.25 uM, 1.25 µM): 97.814
- inhibition at 1.25 µM (His-tagged BCL-xL; BCL-xL Rep-2, 1.25 uM, read-out: Alpha signal normalised to Maximum/Minimum (inhibition)): 98.7%
- Alpha signal normalised to Maximum/Minimum (inhibition) (His-tagged BCL-xL; BCL-xL Rep-2, 5 uM, 5 µM): 100.647
- inhibition at 5 µM (His-tagged BCL-xL; BCL-xL Rep-2, 5 uM, read-out: Alpha signal normalised to Maximum/Minimum (inhibition)): 100%
- Alpha signal (raw counts) (His-tagged BCL-xL; BCL-xL Rep-2, plate row B, 5 uM): 20174 and 14292
- Alpha signal (raw counts) (His-tagged BCL-xL; BCL-xL Rep-2, plate row C, 1.25 uM): 40445 and 53326
- Alpha signal (raw counts) (His-tagged BCL-xL; BCL-xL Rep-2, plate row D, 0.3125 uM): 209031 and 211248
- Alpha signal (raw counts) (His-tagged BCL-xL; BCL-xL Rep-2, plate row E, 0.078125 uM): 567789 and 608705
- Alpha signal (raw counts) (His-tagged BCL-xL; BCL-xL Rep-2, plate row F, 0.0195312 uM): 914961 and 1050246
- Alpha signal (raw counts) (His-tagged BCL-xL; BCL-xL Rep-2, plate row G, 0.00488281 uM): 1086158 and 1054354
- Alpha signal (raw counts) (His-tagged BCL-xL; BCL-xL Rep-2, plate row H, 0.0012207 uM): 1178429 and 1231525
- Alpha signal (raw counts) (His-tagged BCL-xL; BCL-xL Rep-2, plate row I, 0.000305176 uM): 1409371 and 1266044
- Alpha signal (raw counts) (His-tagged BCL-xL; BCL-xL Rep-2, plate row K, 1.90735e-5 uM): 1319490 and 1464517
- Ki (His-tagged BCL-xL; BCL-xL, mean of the two replicate values (line without label)): 3.96 nM
Compound: Cc1ncsc1-c1ccc([C@H](C)NC(=O)[C@@H]2C[C@@H](O)CN2C(=O)[C@@H](NC(=O)CCCCCC(=O)N2CCN(CC[C@H](CSc3ccccc3)Nc3ccc(S(=O)(=O)NC(=O)c4ccc(N5CCN(CC6=C(c7ccc(Cl)cc7)CCC(C)(C)C6)CC5)cc4)cc3S(=O)(=O)C(F)(F)F)CC2)C(C)(C)C)cc1 [DT2216]
- IC50 (Kasumi-1 cells; Homo sapiens, Kasumi 1, 72 h, read-out: IC50, viability of Kasumi-1 cells): 1150 nM
- Luminescence (raw plate reading) (Kasumi-1 cells; 2um (plate column 11)): 404633 and 365594 and 354853 and 362278
- Luminescence (raw plate reading) (Kasumi-1 cells; 4um (plate column 12)): 138608 and 119804 and 124492 and 119916
